Assay results reported in the NIST ThermoML archive (doi:10.1016/j.jct.2015.07.005).
Values joined by “and” are separate entries in the source; they are usually repeats but may differ in a detail not shown here. Equal entries are not always repeated. Numbers after ± are expanded uncertainties.

Details: Gas, Frequency=0.005 MHz, Spherical cavity resonance method

## C [methane]
280.01 K, 500.03 kPa
  speed of sound: 434.02 ± 0.07 m/s and 434.03 ± 0.067 m/s
280.01 K, 500.04 kPa
  speed of sound: 434.03 ± 0.067 m/s
280.01 K, 500.18 kPa
  speed of sound: 434.03 ± 0.071 m/s
280.02 K, 500.03 kPa
  speed of sound: 434.03 ± 0.073 m/s and 434.03 ± 0.072 m/s
280.02 K, 500.04 kPa
  speed of sound: 434.03 ± 0.069 m/s and 434.02 ± 0.074 m/s and 434.03 ± 0.067 m/s
280.02 K, 500.18 kPa
  speed of sound: 434.03 ± 0.068 m/s
280.02 K, 500.19 kPa
  speed of sound: 434.03 ± 0.07 m/s and 434.03 ± 0.066 m/s and 434.03 ± 0.068 m/s
293.27 K, 394.31 kPa
  speed of sound: 443.98 ± 0.062 m/s and 443.97 ± 0.063 m/s and 443.97 ± 0.066 m/s
293.27 K, 394.32 kPa
  speed of sound: 443.97 ± 0.067 m/s and 443.97 ± 0.063 m/s and 443.97 ± 0.065 m/s
293.28 K, 394.32 kPa
  speed of sound: 443.97 ± 0.067 m/s [middle of 6 runs]
293.28 K, 394.33 kPa
  speed of sound: 443.98 ± 0.067 m/s and 443.98 ± 0.064 m/s and 443.97 ± 0.066 m/s
293.28 K, 394.34 kPa
  speed of sound: 443.98 ± 0.065 m/s
293.28 K, 394.35 kPa
  speed of sound: 443.98 ± 0.065 m/s and 443.98 ± 0.063 m/s
293.29 K, 394.36 kPa
  speed of sound: 443.98 ± 0.064 m/s and 443.97 ± 0.063 m/s
319.52 K, 429.9 kPa
  speed of sound: 462.06 ± 0.065 m/s
319.53 K, 429.91 kPa
  speed of sound: 462.06 ± 0.067 m/s
319.55 K, 428.61 kPa
  speed of sound: 461.97 ± 0.066 m/s and 461.97 ± 0.064 m/s
319.87 K, 471.86 kPa
  speed of sound: 462.12 ± 0.071 m/s
319.87 K, 471.87 kPa
  speed of sound: 462.12 ± 0.075 m/s
319.88 K, 471.88 kPa
  speed of sound: 462.12 ± 0.07 m/s
319.88 K, 471.91 kPa
  speed of sound: 462.13 ± 0.075 m/s
319.89 K, 471.91 kPa
  speed of sound: 462.13 ± 0.07 m/s and 462.13 ± 0.074 m/s
319.89 K, 471.92 kPa
  speed of sound: 462.13 ± 0.07 m/s
319.89 K, 471.93 kPa
  speed of sound: 462.12 ± 0.068 m/s and 462.13 ± 0.071 m/s
319.94 K, 430.41 kPa
  speed of sound: 462.32 ± 0.065 m/s
319.94 K, 430.42 kPa
  speed of sound: 462.32 ± 0.064 m/s
319.95 K, 429.13 kPa
  speed of sound: 462.24 ± 0.065 m/s
319.96 K, 429.13 kPa
  speed of sound: 462.24 ± 0.064 m/s
339.35 K, 456 kPa
  speed of sound: 474.76 ± 0.071 m/s and 474.76 ± 0.069 m/s
339.88 K, 456.67 kPa
  speed of sound: 475.08 ± 0.07 m/s
339.89 K, 456.67 kPa
  speed of sound: 475.08 ± 0.071 m/s
359.27 K, 481.98 kPa
  speed of sound: 486.94 ± 0.065 m/s
359.28 K, 480.58 kPa
  speed of sound: 486.84 ± 0.09 m/s
359.28 K, 481.81 kPa
  speed of sound: 486.76 ± 0.11 m/s
359.28 K, 481.99 kPa
  speed of sound: 486.94 ± 0.064 m/s
359.29 K, 480.58 kPa
  speed of sound: 486.85 ± 0.089 m/s
359.85 K, 482.79 kPa
  speed of sound: 487.31 ± 0.067 m/s
359.86 K, 482.59 kPa
  speed of sound: 487.15 ± 0.066 m/s
359.86 K, 482.79 kPa
  speed of sound: 487.31 ± 0.065 m/s
359.87 K, 482.6 kPa
  speed of sound: 487.15 ± 0.064 m/s
360.03 K, 529.63 kPa
  speed of sound: 487.35 ± 0.073 m/s
360.03 K, 529.64 kPa
  speed of sound: 487.35 ± 0.081 m/s and 487.35 ± 0.088 m/s
360.03 K, 529.66 kPa
  speed of sound: 487.35 ± 0.071 m/s
360.04 K, 529.66 kPa
  speed of sound: 487.34 ± 0.071 m/s and 487.34 ± 0.076 m/s
360.04 K, 529.67 kPa
  speed of sound: 487.33 ± 0.077 m/s and 487.33 ± 0.078 m/s
379.2 K, 507.87 kPa
  speed of sound: 498.66 ± 0.097 m/s and 498.66 ± 0.099 m/s
379.78 K, 508.56 kPa
  speed of sound: 498.97 ± 0.096 m/s and 498.98 ± 0.095 m/s
399.24 K, 533.63 kPa
  speed of sound: 510.01 ± 0.15 m/s and 510.02 ± 0.15 m/s
399.82 K, 534.48 kPa
  speed of sound: 510.39 ± 0.15 m/s and 510.39 ± 0.14 m/s
399.99 K, 471.94 kPa
  speed of sound: 510.49 ± 0.07 m/s and 510.5 ± 0.084 m/s and 510.49 ± 0.075 m/s
399.99 K, 471.95 kPa
  speed of sound: 510.47 ± 0.077 m/s and 510.48 ± 0.073 m/s
399.99 K, 471.96 kPa
  speed of sound: 510.47 ± 0.073 m/s
399.99 K, 471.97 kPa
  speed of sound: 510.47 ± 0.069 m/s
399.99 K, 471.98 kPa
  speed of sound: 510.47 ± 0.074 m/s
400 K, 471.96 kPa
  speed of sound: 510.46 ± 0.085 m/s
419.54 K, 559.42 kPa
  speed of sound: 521.02 ± 0.13 m/s
419.55 K, 559.43 kPa
  speed of sound: 521.03 ± 0.12 m/s
419.56 K, 559.63 kPa
  speed of sound: 521.2 ± 0.13 m/s and 521.2 ± 0.14 m/s
419.99 K, 560 kPa
  speed of sound: 521.28 ± 0.12 m/s
420 K, 560.01 kPa
  speed of sound: 521.28 ± 0.12 m/s and 521.29 ± 0.12 m/s
420.02 K, 560.19 kPa
  speed of sound: 521.47 ± 0.12 m/s
420.02 K, 560.2 kPa
  speed of sound: 521.46 ± 0.14 m/s
439.94 K, 496.85 kPa
  speed of sound: 532.03 ± 0.076 m/s
439.94 K, 496.86 kPa
  speed of sound: 532.02 ± 0.082 m/s and 532.03 ± 0.077 m/s
439.94 K, 496.87 kPa
  speed of sound: 532.02 ± 0.073 m/s
439.94 K, 496.88 kPa
  speed of sound: 532.01 ± 0.069 m/s [middle of 5 runs]
449.69 K, 597.89 kPa
  speed of sound: 537.24 ± 0.069 m/s
449.69 K, 597.9 kPa
  speed of sound: 537.24 ± 0.068 m/s [middle of 6 runs]
449.7 K, 597.88 kPa
  speed of sound: 537.22 ± 0.072 m/s
449.7 K, 597.89 kPa
  speed of sound: 537.22 ± 0.075 m/s and 537.23 ± 0.071 m/s
449.7 K, 597.9 kPa
  speed of sound: 537.23 ± 0.069 m/s and 537.24 ± 0.072 m/s and 537.23 ± 0.072 m/s
449.71 K, 597.88 kPa
  speed of sound: 537.22 ± 0.074 m/s and 537.21 ± 0.07 m/s
449.71 K, 597.89 kPa
  speed of sound: 537.22 ± 0.072 m/s [middle of 5 runs]
449.72 K, 597.88 kPa
  speed of sound: 537.2 ± 0.076 m/s
449.72 K, 597.89 kPa
  speed of sound: 537.21 ± 0.074 m/s [middle of 4 runs]
449.73 K, 597.86 kPa
  speed of sound: 537.19 ± 0.076 m/s
449.73 K, 597.87 kPa
  speed of sound: 537.2 ± 0.072 m/s and 537.19 ± 0.069 m/s and 537.19 ± 0.077 m/s
449.74 K, 597.86 kPa
  speed of sound: 537.19 ± 0.075 m/s
449.74 K, 597.87 kPa
  speed of sound: 537.2 ± 0.074 m/s and 537.2 ± 0.071 m/s
449.77 K, 597.88 kPa
  speed of sound: 537.2 ± 0.069 m/s and 537.2 ± 0.071 m/s
449.78 K, 597.9 kPa
  speed of sound: 537.2 ± 0.07 m/s
449.79 K, 597.9 kPa
  speed of sound: 537.2 ± 0.081 m/s
479.91 K, 495.54 kPa
  speed of sound: 552.38 ± 0.078 m/s
479.92 K, 495.51 kPa
  speed of sound: 552.4 ± 0.076 m/s and 552.39 ± 0.069 m/s
479.92 K, 495.52 kPa
  speed of sound: 552.4 ± 0.074 m/s
479.92 K, 495.54 kPa
  speed of sound: 552.39 ± 0.084 m/s
479.92 K, 495.55 kPa
  speed of sound: 552.39 ± 0.074 m/s
479.92 K, 495.57 kPa
  speed of sound: 552.38 ± 0.072 m/s and 552.39 ± 0.07 m/s
479.92 K, 539.8 kPa
  speed of sound: 552.38 ± 0.078 m/s and 552.39 ± 0.072 m/s
479.92 K, 539.81 kPa
  speed of sound: 552.39 ± 0.09 m/s
